From the supplement of paper PMC10307832

Key:
Test in all cases: relative viability (nuclei count vs DMSO), 5 days (fraction); higher = more cells survive
A-427 = test system: A-427
In short: (§1)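 Lung cancer cell lines in 1536-well plates were dosed by pin tool the day after seeding, either with one drug alone or with a fixed anchor-drug dose plus five library-drug doses (not always all listed) in √10 steps. After 5 days, cells were fixed and their nuclei stained in one step (final 0.05% Triton X-100, 1% formaldehyde, 1 ug/ml Hoechst), then counted on 4× images. Relative viability is the nuclei count in treated wells divided by that in vehicle wells. Values are medians of duplicate plates.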

NCI-H650 = test system: NCI-H650
In short: as §1

NCI-H2228 = test system: NCI-H2228
In short: as §1

NCI-H1993 = test system: NCI-H1993
In short: as §1

NCI-H1915 = test system: NCI-H1915
In short: as §1

NCI-H1793 = test system: NCI-H1793
In short: as §1

NCI-H520 = test system: NCI-H520
In short: as §1

NCI-H1666 = test system: NCI-H1666
In short: as §1

NCI-H838 = test system: NCI-H838
In short: as §1

EKVX = test system: EKVX
In short: as §1

NCI-H23 = test system: NCI-H23
In short: as §1

NCI-H1648 = test system: NCI-H1648
In short: as §1

LOU-NH91 = test system: LOU-NH91
In short: as §1

NCI-H460 = test system: NCI-H460
In short: as §1

RERF-LC-KJ = test system: RERF-LC-KJ
In short: as §1

SW 1573 = test system: SW 1573
In short: as §1

LC-2-ad = test system: LC-2-ad
In short: as §1

LU99A = test system: LU99A
In short: as §1

LCLC-97TM1 = test system: LCLC-97TM1
In short: as §1

NCI-H1650 = test system: NCI-H1650
In short: as §1

NCI-H1355 = test system: NCI-H1355
In short: as §1

PC-3 [JPC-3] = test system: PC-3 [JPC-3]
In short: as §1

NCI-H2347 = test system: NCI-H2347
In short: as §1

BEN = test system: BEN
In short: as §1

`CCCCCCCCCCCC1=C(O)C(=O)C=C(O)C1=O` [Embelin] + CC(=O)c1c(C)c2cnc(Nc3ccc(N4CCNCC4)cn3)nc2n(C2CCCC2)c1=O [Palbociclib] (partner 0.5 µM) was tested, and the relative viability (A-427; first compound 0.08 µM) was 0.525, the relative viability (A-427; first compound 0.8 µM) was 0.563 and the relative viability (A-427; first compound 2.53 µM) was 0.526. The relative viability (A-427; first compound 8 µM) was 0.496, the relative viability (NCI-H650; first compound 0.08 µM) was 0.272 and the relative viability (NCI-H650; first compound 0.8 µM) was 0.407. For the same compound, the relative viability (NCI-H650; first compound 2.53 µM) was 0.34, the relative viability (NCI-H650; first compound 8 µM) was 0.313 and the relative viability (NCI-H2228; first compound 0.08 µM) was 0.824. It also gave a relative viability (NCI-H2228; first compound 0.8 µM) of 0.865, a relative viability (NCI-H2228; first compound 2.53 µM) of 0.68 and a relative viability (NCI-H2228; first compound 8 µM) of 0.834. The relative viability (NCI-H1993; first compound 0.08 µM) was 0.641, the relative viability (NCI-H1993; first compound 0.8 µM) was 0.674 and the relative viability (NCI-H1993; first compound 2.53 µM) was 0.721. The relative viability (NCI-H1993; first compound 8 µM) was 0.614, the relative viability (NCI-H1915; first compound 0.08 µM) was 0.543 and the relative viability (NCI-H1915; first compound 0.8 µM) was 0.56. The relative viability (NCI-H1915; first compound 2.53 µM) was 0.583, the relative viability (NCI-H1915; first compound 8 µM) was 0.522 and the relative viability (NCI-H1793; first compound 0.08 µM) was 0.317. For the same compound, the relative viability (NCI-H1793; first compound 0.8 µM) was 0.363, the relative viability (NCI-H1793; first compound 2.53 µM) was 0.411 and the relative viability (NCI-H1793; first compound 8 µM) was 0.363. The relative viability (NCI-H520; first compound 0.08 µM) was 0.303, the relative viability (NCI-H520; first compound 0.8 µM) was 0.186 and the relative viability (NCI-H520; first compound 2.53 µM) was 0.246. The relative viability (NCI-H520; first compound 8 µM) was 0.214, the relative viability (NCI-H1666; first compound 0.08 µM) was 0.638 and the relative viability (NCI-H1666; first compound 0.8 µM) was 0.624. For the same compound, the relative viability (NCI-H1666; first compound 2.53 µM) was 0.641, the relative viability (NCI-H1666; first compound 8 µM) was 0.681 and the relative viability (NCI-H838; first compound 0.08 µM) was 0.249. It also gave a relative viability (NCI-H838; first compound 0.8 µM) of 0.232, a relative viability (NCI-H838; first compound 2.53 µM) of 0.224 and a relative viability (NCI-H838; first compound 8 µM) of 0.21. It also gave a relative viability (EKVX; first compound 0.08 µM) of 0.411, a relative viability (EKVX; first compound 0.8 µM) of 0.432 and a relative viability (EKVX; first compound 2.53 µM) of 0.466. It also gave a relative viability (EKVX; first compound 8 µM) of 0.394, a relative viability (NCI-H23; first compound 0.08 µM) of 0.516 and a relative viability (NCI-H23; first compound 0.8 µM) of 0.543. It also gave a relative viability (NCI-H23; first compound 2.53 µM) of 0.533, a relative viability (NCI-H23; first compound 8 µM) of 0.594 and a relative viability (NCI-H1648; first compound 0.08 µM) of 0.205. It also gave a relative viability (NCI-H1648; first compound 0.8 µM) of 0.23, a relative viability (NCI-H1648; first compound 2.53 µM) of 0.241 and a relative viability (NCI-H1648; first compound 8 µM) of 0.297. The relative viability (LOU-NH91; first compound 0.08 µM) was 0.551, the relative viability (LOU-NH91; first compound 0.8 µM) was 0.556 and the relative viability (LOU-NH91; first compound 2.53 µM) was 0.542. It also gave a relative viability (LOU-NH91; first compound 8 µM) of 0.52, a relative viability (NCI-H460; first compound 0.08 µM) of 0.169 and a relative viability (NCI-H460; first compound 0.8 µM) of 0.227. It also gave a relative viability (NCI-H460; first compound 2.53 µM) of 0.134, a relative viability (NCI-H460; first compound 8 µM) of 0.156 and a relative viability (RERF-LC-KJ; first compound 0.08 µM) of 1.15. It also gave a relative viability (RERF-LC-KJ; first compound 0.8 µM) of 1.15, a relative viability (RERF-LC-KJ; first compound 2.53 µM) of 1.24 and a relative viability (RERF-LC-KJ; first compound 8 µM) of 0.979. It also gave a relative viability (SW 1573; first compound 0.08 µM) of 0.344, a relative viability (SW 1573; first compound 0.8 µM) of 0.498 and a relative viability (SW 1573; first compound 2.53 µM) of 0.37. It also gave a relative viability (SW 1573; first compound 8 µM) of 0.422, a relative viability (LC-2-ad; first compound 0.08 µM) of 0.433 and a relative viability (LC-2-ad; first compound 0.8 µM) of 0.442. For the same compound, the relative viability (LC-2-ad; first compound 2.53 µM) was 0.535, the relative viability (LC-2-ad; first compound 8 µM) was 0.516 and the relative viability (LU99A; first compound 0.08 µM) was 0.471. For the same compound, the relative viability (LU99A; first compound 0.8 µM) was 0.411, the relative viability (LU99A; first compound 2.53 µM) was 0.394 and the relative viability (LU99A; first compound 8 µM) was 0.374. It also gave a relative viability (LCLC-97TM1; first compound 0.08 µM) of 0.184, a relative viability (LCLC-97TM1; first compound 0.8 µM) of 0.215 and a relative viability (LCLC-97TM1; first compound 2.53 µM) of 0.262. The relative viability (LCLC-97TM1; first compound 8 µM) was 0.242, the relative viability (NCI-H1650; first compound 0.08 µM) was 0.358 and the relative viability (NCI-H1650; first compound 0.8 µM) was 0.406. For the same compound, the relative viability (NCI-H1650; first compound 2.53 µM) was 0.38, the relative viability (NCI-H1650; first compound 8 µM) was 0.354 and the relative viability (NCI-H1355; first compound 0.08 µM) was 0.411. The relative viability (NCI-H1355; first compound 0.8 µM) was 0.416, the relative viability (NCI-H1355; first compound 2.53 µM) was 0.398 and the relative viability (NCI-H1355; first compound 8 µM) was 0.366. It also gave a relative viability (PC-3 [JPC-3]; first compound 0.08 µM) of 0.518, a relative viability (PC-3 [JPC-3]; first compound 0.8 µM) of 0.543 and a relative viability (PC-3 [JPC-3]; first compound 2.53 µM) of 0.571. The relative viability (PC-3 [JPC-3]; first compound 8 µM) was 0.511, the relative viability (NCI-H2347; first compound 0.08 µM) was 0.47 and the relative viability (NCI-H2347; first compound 0.8 µM) was 0.387. It also gave a relative viability (NCI-H2347; first compound 2.53 µM) of 0.451, a relative viability (NCI-H2347; first compound 8 µM) of 0.389 and a relative viability (BEN; first compound 0.08 µM) of 0.486. It also gave a relative viability (BEN; first compound 0.8 µM) of 0.545, a relative viability (BEN; first compound 2.53 µM) of 0.486 and a relative viability (BEN; first compound 8 µM) of 0.481.
